Results published in patent US11066414B2, “Cot modulators and methods of use thereof” (Gilead Sciences, Inc., priority 2015, dated 2021).
Read-outs that look alike come from different tables or passages of the source.

Columns and labels:
Human Cot = Human Cot (Homo sapiens (Human), UniProt P41279); assay: High Throughput Cot Biochemical Assay
Description: Human Cot enzyme activity was measured using KinEASE (Cisbio), a time-resolved fluorescence resonance energy transfer (TR-FRET) immunoassay. In this assay, Cot-catalyzes the phosporylation of a XL665-labeled peptide substrate. Europium conjugated phospho-tyrosine specific antibody binds the resulting phosphorylated peptide. Formation of phosphorylated peptide is quantified by TR-FRET with Europium as the donor and XL665 the acceptor in a 2-step endpoint assay. […] In brief, test compounds serially diluted in DMSO were delivered into Proxy white, low volume, 384 well plates using the Echo 550 acoustic liquid dispenser (Labcyte®). Cot enzyme and substrates were dispensed into assay plates using a Multi-Flo (Bio-Tek Instruments). The standard 5 μL reaction mixture contained 400 μM ATP, 1 μM STK3 peptide, 5 nM of Cot in reaction buffer (10 mM MOPS, pH 7.0, 0.02% NaN3, 0.5 mg/mL BSA, 10 mM MgOAc, 1 mM DTT, 0.025% NP-40, 1.5% glycerol) and 0.1% DMSO.

TNFα = assay: Cot Monocyte TNFα Cell Based Assay
[1] = IC50 HTRF, Cot HTRF (TR-FRET) biochemical assay
[2] = Homo sapiens, Monocyte, read-out: EC50 TNF, LPS-stimulated human monocytes, TNFα
[3] = read-out: IC50 HTRF, Cot HTRF (TR-FRET) biochemical assay
[4] = read-out: EC50 TNF, LPS-stimulated human monocytes, TNFα
[5] = IC50 HTRF, Cot HTRF (TR-FRET KinEASE) biochemical assay, 400 μM ATP
[6] = Homo sapiens, Monocyte, read-out: EC50 TNF, LPS-stimulated human monocytes, TNFα TR-FRET

Human Cot, sequence (P41279 30-397): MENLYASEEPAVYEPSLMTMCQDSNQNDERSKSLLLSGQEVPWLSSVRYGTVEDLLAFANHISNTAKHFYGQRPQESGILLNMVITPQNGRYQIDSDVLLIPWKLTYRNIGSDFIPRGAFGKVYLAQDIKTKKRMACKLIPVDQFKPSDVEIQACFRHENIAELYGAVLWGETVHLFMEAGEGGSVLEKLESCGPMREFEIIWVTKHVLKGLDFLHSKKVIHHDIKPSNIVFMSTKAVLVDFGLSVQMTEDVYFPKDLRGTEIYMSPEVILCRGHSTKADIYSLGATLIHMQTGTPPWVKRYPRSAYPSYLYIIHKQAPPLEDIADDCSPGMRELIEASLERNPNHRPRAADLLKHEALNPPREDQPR

SMILES	IC50 (Human Cot; [1]) [nM]	EC50 (TNFα; [2]) [nM]	further results
N#Cc1cnc2c(Cl)cc(N[C@@H](c3cccnc3)c3cn(CCN4CCCCC4)nn3)cc2c1Nc1ccc(F)c(Cl)c1 [Example 334, (S)-8-chloro-4-((3-chloro-4-fluorophenyl)amino)-6-(((1-(2-(piperidin-1-yl)ethyl)-1H-1,2,3-triazol-4-yl)(pyridin-3-yl)methyl)-amino)quinoline-3-carbonitrile]	4	82	–
CC(C)(C)N1CCC(n2cc([C@@H](Nc3cc(Cl)c4ncc(C#N)c(Nc5ccc(F)c(Cl)c5)c4c3)c3cccnc3Cl)nn2)CC1 [Example 315, (S)-6-(((1-(1-(tert-butyl)piperidin-4-yl)-1H-1,2,3-triazol-4-yl)(2-chloropyridin-3-yl)methyl)arnino)-8-chloro-4-((3-chloro-4-fluorophenyl)amino)quinoline-3-carbonitrile]	–	–	IC50 (Human Cot; [3]): 4 nM; EC50 (TNFα; [4]): 132 nM
N#CCCC(Nc1c(C#N)cnc2c(Cl)cc(N[C@H](c3cn(C4[C@H]5CN(C6COC6)C[C@@H]45)nn3)c3csc4c3CCN(C3COC3)C4)cc12)c1ccccc1 (stereo partly drawn) [Example 82, 8-chloro-4-((3-cyano-1-phenylpropyl)amino)-6-(((S)-(1-((1R,5S,6r)-3-(oxetan-3-yl)-3-azabicyclo[3.1 0]hexan-6-yl)-1H-1,2,3-triazol-4-yl)(6-(oxetan-3-yl)-4,5,6,7-tetrahydrothieno[2,3-c]pyridin-3-yl)methyl)amino)-quinoline-3-carbonitrile]	–	–	IC50 (Human Cot; [3]): 2 nM; EC50 (TNFα; [4]): 151 nM
[2H]C(Nc1cc(Cl)c2ncc(C#N)c(N[C@H](CCC#N)c3ccccc3)c2c1)(c1ccc(F)nc1)c1cn(C2CC2)nn1 (stereo partly drawn) [Example 89, 8-chloro-4-(((R)-3-cyano-1-phenylpropyl)amino)-6-(((1-cyclopropyl-1H-1,2,3-triazol-4-yl)(6-fluoropyridin-3-yl)methyl-d)amino)quinoline-3-carbonitrile]	520	> 1000	–
CC(C)(C)CNc1c(C#N)cnc2c(C#N)cc(N[C@H](c3cn(C4(C(N)=O)CCC4)nn3)c3cccc4cnccc34)cc12 [Example 587, (S)-1-(4-(((3,8-dicyano-4-(neopentylamino)-quinolin-6-yl)amino)(isoquinolin-5-yl)methyl)-1H-1,2,3-triazol-1-yl)cyclobutane-1-carboxamide]	1	489	–
CC(C)(C)CNc1c(C#N)cnc2c(Cl)cc(N[C@H](c3cn(C4(C(F)(F)F)CC4)nn3)c3cccc4nccnc34)cc12 [Example 734, (S)-8-chloro-4-(neopentylamino)-6-((quinoxalin-5-yl(1-(1-(trifluoromethyl)-cyclopropyl)-1H-1,2,3-triazol-4-yl)methyl)amino)quinoline-3-carbonitrile]	41	313	–
CC(C)(C)CNc1c(C#N)cnc2c(Cl)cc(N[C@H](c3cn(C45CC(C4)C5)nn3)c3cccc4c(=O)[nH]ccc34)cc12 [Example 787, (S)-6-(((1-(bicyclo[1.1.1]pentan-1-yl)-1H-1,2,3-triazol-4-yl)(1-oxo-1,2-dihydroisoquinolin-5-yl)methyl)amino)-8-chloro-4-(neopentylamino)quinoline-3-carbonitrile]	2	65	–
CC(C)(C)CNc1c(C#N)cnc2c(Cl)cc(N[C@H](c3cn(C4(C(F)F)CC4)nn3)c3cccc4ccncc34)cc12 [Example 537, (S)-8-chloro-6-(((1-(1-(difluoromethyl)-cyclopropyl)-1H-1,2,3-triazol-4-yl)(isoquinolin-8-yl)methyl)amino)-4-(neopentylamino)quinoline-3-carbonitrile]	2	75	–
Cc1ccc([C@H](Nc2cc(C#N)c3ncc(C#N)c(NCC(C)(C)C)c3c2)c2cn(C3(C(F)F)CC3)nn2)c(C)n1 [Example 829, (S)-6-(((1-(1-(difluoromethyl)-cyclopropyl)-1H-1,2,3-triazol-4-yl)(2,6-dimethylpyridin-3-yl)methyl)amino)-4-(neopentylamino)quinoline-3,8-dicarbonitrile]	–	–	IC50 (Human Cot; [5]): 4 nM; EC50 (TNFα; [6]): 66 nM
CC(C)(C)CNc1c(C#N)cnc2c(C#N)cc(N[C@H](c3cn(C4(C(F)(F)F)CC4)nn3)c3cccn4nccc34)cc12 [Example 572, (S)-4-(neopentylamino)-6-((pyrazolo[1,5-a]pyridin-4-yl(1-(1-(trifluoromethyl)cyclo-propyl)-1H-1,2,3-triazol-4-yl)methyl)amino)quinoline-3,8-dicarbonitrile]	4	79	–
Cc1nc(F)ccc1[C@H](Nc1cc(Cl)c2ncc(C#N)c(NCC(C)(C)C)c2c1)c1cn(C2(C)CC2)nn1 [Example 480, (S)-8-chloro-6-(((6-fluoro-2-methylpyridin-3-yl)(1-(1-methylcyclopropyl)-1H-1,2,3-triazol-4-yl)methyl)amino)-4-(neopentylamino)-quinoline-3-carbonitrile]	2	60	–
CC(C)(C)CNc1c(C#N)cnc2c(Cl)cc(N[C@H](c3cn(C4(C(F)(F)F)CC4)nn3)c3ccc(Cl)c4ncccc34)cc12 [Example 921, (S)-8-chloro-6-(((8-chloroquinolin-5-yl)(1-(1-(trifluoromethyl)cyclopropyl)-1H-1,2,3-triazol-4-yl)methyl)amino)-4-(neopentylamino)quinoline-3-carbonitrile]	–	–	IC50 (Human Cot; [5]): 17 nM; EC50 (TNFα; [6]): 187 nM
Cc1nc([C@H](Nc2cc(Cl)c3ncc(C#N)c(NCC(C)(C)C)c3c2)c2cn(C3(C(F)F)CC3)nn2)c(C)o1 [Example 639, (S)-8-chloro-6-(((1-(1-(difluoromethyl)cyclopropyl)-1H-1,2,3-triazol-4-yl)(2,5-dimethyloxazol-4-yl)methyl)amino)-4-(neopentylamino)quinoline-3-carbonitrile]	58	806	–
CC(C)n1cc([C@@H](Nc2cc(Cl)c3ncc(C#N)c(N[C@H](CCO)c4ccccc4)c3c2)c2cccnc2)nn1 [Example 185, 8-chloro-4-(((R)-3-hydroxy-1-phenylpropyl)amino)-6-(((S)-(1-isopropyl-1H-1,2,3-triazol-4-yl)(pyridin-3-yl)methyl)amino)quinoline-3-carbonitrile]	305	9740	–
CC(C)(C)CNc1c(C#N)cnc2c(Cl)cc(N[C@H](c3cn(C4(C(F)F)CC4)nn3)c3cccn4nccc34)cc12 [Example 538, (S)-8-chloro-6-(((1-(1-(difluoromethyl)-cyclopropyl)-1H-1,2,3-triazol-4-yl)(pyrazolo[1,5-a]pyridin-4-yl)methyl)amino)-4-(neopentylamino)-quinoline-3-carbonitrile]	5	109	–
CC(C)(C)CNc1c(C#N)cnc2c(C#N)cc(N[C@@H](c3ccc4cccnc4c3)c3cn(C4(C(F)F)CC4)nn3)cc12 [Example 818, (S)-6-(((1-(1-(difluoromethyl)-cyclopropyl)-1H-1,2,3-triazol-4-yl)(quinolin-7-yl)methyl)amino)-4-(neopentylamino)quinoline-3,8-dicarbonitrile]	–	–	IC50 (Human Cot; [5]): 6 nM; EC50 (TNFα; [6]): 176 nM
CCn1ccc2c([C@H](Nc3cc(Cl)c4ncc(C#N)c(NCC(C)(C)C)c4c3)c3cn(C45CC(C4)C5)nn3)cccc2c1=O [Example 769, (S)-6-(((1-(bicyclo[1.1.1]pentan-1-yl)-1H-1,2,3-triazol-4-yl)(2-ethyl-1-oxo-1,2-dihydroisoquinolin-5-yl)methyl)amino)-8-chloro-4-(neopentylamino)quinoline-3-carbonitrile]	2	28	–
[2H]C(Nc1cc(Cl)c2ncc(C#N)c(NCC(C)(C)C)c2c1)(c1cn(C2CC2)nn1)c1cc(F)cnc1C (stereo not shown) [Example 114, 8-chloro-6-(((1-cyclopropyl-1H-1,2,3-triazol-4-yl)(5-fluoro-2-methylpyridin-3-yl)methyl-d)amino)-4-(neopentylamino)quinoline-3-carbonitrile]	10	233	–
CC[C@@H](Nc1c(C#N)cnc2c(Cl)cc(N[C@H](c3c[nH]nn3)c3cccnc3C)cc12)c1ccccc1 [Example 220, 8-chloro-6-(((S)-(2-methylpyridin-3-yl)(1H-1,2,3-triazol-4-yl)methyl)amino)-4-(((R)-1-phenylpropyl)amino)quinoline-3-carbonitrile]	4	348	–
Cc1nc(F)ccc1[C@H](Nc1cc(Cl)c2ncc(C#N)c(NCC(C)(C)C)c2c1F)c1cn(C2(C(F)F)CC2)nn1 [Example 983, (S)-8-chloro-6-(((1-(1-(difluoromethyl)cyclopropyl)-1H-1,2,3-triazol-4-yl)(6-fluoro-2-methylpyridin-3-yl)methyl)amino)-5-fluoro-4-(neopentylamino)quinoline-3-carbonitrile]	–	–	IC50 (Human Cot; [5]): 9640 nM; EC50 (TNFα; [6]): 1000 nM
Cc1nc(F)ccc1[C@H](Nc1cc(C#N)c2ncc(C#N)c(NCC(C)(C)C)c2c1)c1cn(C2(C(=O)N(C)C)CC2)nn1 [Example 642, (S)-1-(4-(((3,8-dicyano-4-(neopentylamino)quinolin-6-yl)amino)(6-fluoro-2-methylpyridin-3-yl)methyl)-1H-1,2,3-triazol-1-yl)-N,N-dimethylcyclopropane-1-carboxamide]	5	182	–
[2H][C@](Nc1cc(OC)c2ncc(C#N)c(NCC(C)(C)C)c2c1)(c1ccc(F)nc1)c1cn(C2CC2)nn1 [Example 98, (S)-6-(((1-cyclopropyl-1H-1,2,3-triazol-4-yl)(6-fluoropyridin-3-yl)methyl-d)amino)-8-methoxy-4-(neopentylamino)quinoline-3-carbonitrile]	49	821	–
C[C@@H](CF)n1cc([C@@H](Nc2cc(C#N)c3ncc(C#N)c(NCC(C)(C)C)c3c2)c2cccc3c(=O)n(C)ccc23)nn1 [Example 877, 6-(((S)-(1-((S)-1-fluoropropan-2-yl)-1H-1,2,3-triazol-4-yl)(2-methyl-1-oxo-1,2-dihydroisoquinolin-5-yl)methyl)amino)-4-(neopentylamino)quinoline-3,8-dicarbonitrile]	–	–	IC50 (Human Cot; [5]): 2 nM; EC50 (TNFα; [6]): 34 nM
